pIC50: −log10 of the molar value.

Assay [1] addresses T1, 11β-HSD1 (Homo sapiens, UniProt P28845). As to the kind of experiment: biochemical. Particulars: for IC50: Biological Test Example 1 IC50 (nM); for inhibition at 0.1 µM: read-out: Average % inhibition at 100 nM.
For assay [2], the target named is T1, 11β-HSD1. As to the kind of experiment: Biological Test Example 4: microsomal 11β-HSD1 in the presence of 50% human plasma. The conditions noted are these: for Shift: IC50 in Test Example 4 divided by IC50 in Test Example 1.
Setting [3] is: IC50 Range, Biological Test Example 1.

T1 sequence (P28845 whole entry): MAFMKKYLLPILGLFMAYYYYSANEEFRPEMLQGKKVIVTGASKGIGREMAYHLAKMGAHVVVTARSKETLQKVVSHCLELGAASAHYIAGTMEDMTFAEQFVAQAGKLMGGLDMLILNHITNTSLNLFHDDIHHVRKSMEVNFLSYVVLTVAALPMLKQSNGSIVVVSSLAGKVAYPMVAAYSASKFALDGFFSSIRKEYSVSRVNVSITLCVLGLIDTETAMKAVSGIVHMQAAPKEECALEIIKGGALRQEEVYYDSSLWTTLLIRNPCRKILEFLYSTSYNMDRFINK

By IC50 is commonly meant the concentration at which inhibition is half-maximal. Broadly, the pIC50 is the IC50 on a negative log10 scale, so that one unit is a factor of ten. The term inhibition denotes the drop in the measured response relative to a control, in per cent. `C[C@@H](c1ccc(-c2ccc(C(=O)NC3CC3)cn2)cc1)N1CC[C@](CC(C)(C)C#N)(c2ccccc2)OC1=O` [EXAMPLE 2, 6-(4-((S)-1-((R)-6-(2-cyano-2-methylpropyl)-2-oxo-6-phenyl-1,3-oxazinan-3-yl)ethyl)phenyl)-N-cyclopropylnicotinamide]: at 11β-HSD1 [1], the IC50 was found to be 0.8 nM and the inhibition at 0.1 µM came out at 99%. Further, on 11β-HSD1 [1] (setting [3]), the pIC50 was > 7.00. For the same molecule, at 11β-HSD1 [2], the pIC50 was 8.54 and the Shift was 3.8.
Regarding `C[C@@H](c1ccc(-c2ccc(C(C)(C)C)nn2)cc1)N1CC[C@](CC(C)(C)O)(c2ccccc2)OC1=O` [EXAMPLE 6, (S)-3-((S)-1-(4-(6-tert-butylpyridazin-3-yl)phenyl)ethyl)-6-(2-hydroxy-2-methylpropyl)-6-phenyl-1,3-oxazinan-2-one], on 11β-HSD1 [1], the IC50 was 1 nM and the inhibition at 0.1 µM worked out at 96.3%. The negative-log IC50 (pIC50) against 11β-HSD1 [1] (setting [3]) is > 7.00. For the same molecule, on 11β-HSD1 [2], the pIC50 is 8.07 and the Shift turned out to be 8.4.
With `Cc1ncc(-c2ccc([C@H](C)N3CC[C@](CCc4nnc(C)o4)(c4ccccc4)OC3=O)cc2)cn1` [EXAMPLE 18, (R)-6-(2-(5-methyl-1,3,4-oxadiazol-2-yl)ethyl)-3-((S)-1-(4-(2-methylpyrimidin-5-yl)phenyl)ethyl)-6-phenyl-1,3-oxazinan-2-one], at 11β-HSD1 [1], the IC50 was > 100 nM and the inhibition at 0.1 µM is 13.7%. For the same molecule, at 11β-HSD1 [1] (setting [3]), the pIC50 is < 7.00.
For `C[C@@H](c1ccc(-c2ncc(C(=O)NC3CC3)s2)cc1)N1CC[C@](CC(C)(C)C#N)(c2ccccc2)OC1=O` [EXAMPLE 21, 2-(4-((S)-1-((R)-6-(2-cyano-2-methylpropyl)-2-oxo-6-phenyl-1,3-oxazinan-3-yl)ethyl)phenyl)-N-cyclopropylthiazole-5-carboxamide], at 11β-HSD1 [1], the IC50 is 0.4 nM and the inhibition at 0.1 µM worked out at 99.2%. Further, the pIC50 on 11β-HSD1 [1] (setting [3]) is > 7.00. Besides, on 11β-HSD1 [2], the pIC50 was 8.47 and the Shift is 7.8.
In the same order, the values of `C[C@@H](c1ccc(-c2ncc(C(=O)NC(C)(C)C)s2)cc1)N1CC[C@](CC(C)(C)O)(c2ccccc2)OC1=O` [EXAMPLE 23, N-tert-butyl-2-(4-((S)-1-((S)-6-(2-hydroxy-2-methylpropyl)-2-oxo-6-phenyl-1,3-oxazinan-3-yl)ethyl)phenyl)thiazole-5-carboxamide] are 2.7 nM, 89.3%, > 7.00, 7.86 and 5.1.
In the same order, the values of `C[C@@H](c1ccc(-c2ncc(C(=O)NC(C)(C)C)s2)cc1)N1CC[C@](CC(C)(C)C#N)(c2ccccc2)OC1=O` [EXAMPLE 24, N-tert-butyl-2-(4-((S)-1-((R)-6-(2-cyano-2-methylpropyl)-2-oxo-6-phenyl-1,3-oxazinan-3-yl)ethyl)phenyl)thiazole-5-carboxamide] are 0.8 nM, 96.9%, > 7.00, 8.36 and 5.2.
As to `C[C@@H](c1ccc(-c2ncc(C(C)(C)O)cn2)cc1)N1CC[C@](CC(C)(C)O)(c2ccccc2)OC1=O` [EXAMPLE 29, (S)-6-(2-hydroxy-2-methylpropyl)-3-((S)-1-(4-(5-(2-hydroxypropan-2-yl)pyrimidin-2-yl)phenyl)ethyl)-6-phenyl-1,3-oxazinan-2-one], at 11β-HSD1 [1], the IC50 worked out at 12.2 nM and the inhibition at 0.1 µM is 83.8%. The pIC50 at 11β-HSD1 [1] (setting [3]) was > 7.00.
Regarding `CC1(c2ccccc2)CCN(c2cccc(-c3ccncc3)c2)C(=O)O1` (stereo not drawn) [EXAMPLE 33, 6-methyl-6-phenyl-3-(3-(pyridin-4-yl)phenyl)-1,3-oxazinan-2-one], 305 nM corresponded to half-maximal inhibition at 11β-HSD1 [1] (IC50). Besides, the pIC50 against 11β-HSD1 [1] (setting [3]) was 6.00 to 7.00. In addition, at 11β-HSD1 [1] (read-out: average % inhibition at 111 nM), the inhibition at 0.111 µM came out at 37.1%.
For `C=CC[C@]1(c2ccc(F)cc2)CCN([C@@H](C)c2ccc(-c3nnc(C)s3)cc2)C(=O)O1` [EXAMPLE 39, (R)-6-allyl-6-(4-fluorophenyl)-3-((S)-1-(4-(5-methyl-1,3,4-thiadiazol-2-yl)phenyl)ethyl)-1,3-oxazinan-2-one], at 11β-HSD1 [1], 5.2 nM corresponded to half-maximal inhibition (IC50) and the inhibition at 0.1 µM stood at 73.6%. In addition, the pIC50 at 11β-HSD1 [1] (setting [3]) was > 7.00.
In the same order, the values of `C=CC[C@]1(c2ccccc2)CCN([C@@H](C)c2ccc(-c3cncc(F)c3)cc2)C(=O)O1` [EXAMPLE 46, (R)-6-allyl-3-((S)-1-(4-(5-fluoropyridin-3-yl)phenyl)ethyl)-6-phenyl-1,3-oxazinan-2-one] are 0.8 nM, 93.4% and > 7.00.
For the molecule `C[C@@H](c1ccc(-c2ccc[n+]([O-])c2)cc1)N1CC[C@](CCC(N)=O)(c2ccccc2)OC1=O` [EXAMPLE 50, 3-(4-((S)-1-((R)-6-(3-amino-3-oxopropyl)-2-oxo-6-phenyl-1,3-oxazinan-3-yl)ethyl)phenyl)pyridine 1-oxide], at 11β-HSD1 [1], the pIC50 was > 7.00; the midpoint of inhibition, the IC50, lay at 29.1 nM; the inhibition at 0.1 µM stood at 81.2%.
As to `C[C@@H](c1ccc(-c2ccc[n+]([O-])c2)cc1)N1CC[C@](CCC(N)=O)(c2ccc(F)cc2)OC1=O` [EXAMPLE 68, 3-(4-((S)-1-((R)-6-(3-amino-3-oxopropyl)-6-(4-fluorophenyl)-2-oxo-1,3-oxazinan-3-yl)ethyl)phenyl)pyridine 1-oxide], at 11β-HSD1 [1], half-maximal inhibition (IC50) required 85.1 nM and the inhibition at 0.1 µM turned out to be 50%. Also, the pIC50 against 11β-HSD1 [1] (setting [3]) is > 7.00.
In the same order, the values of `C[C@@H](c1ccc(-c2cncc(F)c2)cc1)N1CC[C@](CCC(=O)O)(c2ccc(F)cc2)OC1=O` [EXAMPLE 70, 3-((R)-6-(4-fluorophenyl)-3-((S)-1-(4-(5-fluoropyridin-3-yl)phenyl)ethyl)-2-oxo-1,3-oxazinan-6-yl)propanoic acid] are 99.6 nM, 49.7% and > 7.00.
Regarding `C[C@@H](c1ccc(-c2cncc(C(N)=O)c2)cc1)N1CC[C@](CCCO)(c2ccc(F)cc2)OC1=O` [EXAMPLE 71, 5-(4-((S)-1-((R)-6-(4-fluorophenyl)-6-(3-hydroxypropyl)-2-oxo-1,3-oxazinan-3-yl)ethyl)phenyl)nicotinamide], at 11β-HSD1 [1], half-maximal inhibition (IC50) required 44.1 nM and the inhibition at 0.1 µM was 68.7%. In addition, at 11β-HSD1 [1] (setting [3]), the pIC50 was > 7.00.
For the molecule `C[C@@H](c1ccc(-c2cncc(C(=O)N(C)C)c2)cc1)N1CC[C@](CCCO)(c2ccc(F)cc2)OC1=O` [EXAMPLE 72, 5-(4-((S)-1-((R)-6-(4-fluorophenyl)-6-(3-hydroxypropyl)-2-oxo-1,3-oxazinan-3-yl)ethyl)phenyl)-N,N-dimethylnicotinamide], at 11β-HSD1 [1], half-maximal inhibition (IC50) required 43.5 nM and the inhibition at 0.1 µM is 64.8%. Moreover, the pIC50 against 11β-HSD1 [1] (setting [3]) was > 7.00.
As to `CNC(=O)c1cncc(-c2ccc([C@H](C)N3CC[C@](CCCO)(c4ccc(F)cc4)OC3=O)cc2)c1` [EXAMPLE 73, 5-(4-((S)-1-((R)-6-(4-fluorophenyl)-6-(3-hydroxypropyl)-2-oxo-1,3-oxazinan-3-yl)ethyl)phenyl)-N-methylnicotinamide], at 11β-HSD1 [1], the IC50 was 46.9 nM and the inhibition at 0.1 µM turned out to be 65.3%. The pIC50 against 11β-HSD1 [1] (setting [3]) was > 7.00.
Consider `Cc1cc(-c2ccc([C@H](C)N3CC[C@](CCC(C)(C)O)(c4ccc(F)cc4)OC3=O)cc2)ccn1` [EXAMPLE 79, (R)-6-(4-fluorophenyl)-6-(3-hydroxy-3-methylbutyl)-3-((S)-1-(4-(2-methylpyridin-4-yl)phenyl)ethyl)-1,3-oxazinan-2-one], for which, at 11β-HSD1 [1], the midpoint of inhibition, the IC50, lay at 28.3 nM and the inhibition at 0.1 µM was 76.9%. The pIC50 at 11β-HSD1 [1] (setting [3]) was > 7.00.
Consider `Cc1cc(-c2ccc([C@H](C)N3CC[C@](CCCO)(c4ccc(F)cc4)OC3=O)cc2)cc(C)n1` [EXAMPLE 81, (R)-3-((S)-1-(4-(2,6-dimethylpyridin-4-yl)phenyl)ethyl)-6-(4-fluorophenyl)-6-(3-hydroxypropyl)-1,3-oxazinan-2-one], for which, on 11β-HSD1 [1], the IC50 came to 0.6 nM and the inhibition at 0.1 µM was found to be 99.3%. For the same molecule, the pIC50 against 11β-HSD1 [1] (setting [3]) is > 7.00.
In the same order, the values of `Cc1cc(-c2ccc([C@H](C)N3CC[C@](CCCN4CCCC4=O)(c4ccccc4)OC3=O)cc2)ccn1` [EXAMPLE 104, (R)-3-((S)-1-(4-(2-methylpyridin-4-yl)phenyl)ethyl)-6-(3-(2-oxopyrrolidin-1-yl)propyl)-6-phenyl-1,3-oxazinan-2-one] are 9.2 nM, 88% and > 7.00.
In the same order, the values of `C[C@@H](c1ccc(-c2ccc(OCC(C)(C)O)nc2)cc1)N1CC[C@](CC(C)(C)O)(c2ccccc2)OC1=O` [EXAMPLE 198, (S)-3-((S)-1-(4-(6-(2-hydroxy-2-methylpropoxy)pyridin-3-yl)phenyl)ethyl)-6-(2-hydroxy-2-methylpropyl)-6-phenyl-1,3-oxazinan-2-one] are 1 nM, 92.4% and > 7.00.
For `CC(C)[C@@]1(CC(C)(C)O)CCN([C@@H](C)c2ccc(-c3cnc(C(=O)NC4CC4)nc3)cc2)C(=O)O1` [EXAMPLE 199, N-cyclopropyl-5-(4-((S)-1-((S)-6-(2-hydroxy-2-methylpropyl)-6-isopropyl-2-oxo-1,3-oxazinan-3-yl)ethyl)phenyl)pyrimidine-2-carboxamide] the same measures were 63.5 nM, 62.9% and > 7.00.
On 11β-HSD1 [1], `COc1cc(-c2ccc([C@H](C)N3CC[C@](CC(C)(C)O)(c4ccccc4)OC3=O)cc2)ccn1` [EXAMPLE 210, (S)-6-(2-hydroxy-2-methylpropyl)-3-((S)-1-(4-(2-methoxypyridin-4-yl)phenyl)ethyl)-6-phenyl-1,3-oxazinan-2-one] displayed an IC50 of 0.6 nM. Moreover, at 11β-HSD1 [1] (setting [3]), the pIC50 is > 7.00.

These data come from patent US8569292B2, “Cyclic inhibitors of 11β-hydroxysteroid dehydrogenase 1” (Vitae Pharmaceuticals, Inc., priority 2008, dated 2013).
